Tests used:
[1] = cited from earlier work
[2] = Stability test of the fulvestrant solution in acetic acid during 6 hours at room temperature (HPLC titer and impurities); type: physicochemical; settings: fulvestrant in glacial acetic acid
Method: To a 10 mL beaker, fitted with a magnetic stirrer, 2.5 mL glacial acetic acid, Merck lot K 36685863, is added.
Fifty mg Fulvestrant from Scinopharm, lot#70850AA003 were weighed using an Ohaus model Adventurer balance.
Stirring of acetic acid is started and Fulvestrant is slowly added which is rapidly dissolved. After all Fulvestrant was added stirring is continued for 5 minutes.
Stirring is stopped and the solution is left at room temperature for 6 hours, then dissolution is analyzed in terms of titer and purity by HPLC, and compared to Scinopharm Fulvestrant as used for manufacturing the lyophilizate. HPLC determinations were carried out on an HPLC Waters with a Waters 1525 binary pump, Waters 717 autosampler, and a Waters 2996 diode array detector; the HPLC column used for determining titer and purity is an Agilent Eclipse XDB-C8 3.5 u 4.6×150 Rapid Res column; the chromatographic method corresponds to US Pharmacopeia (USP, 34 (2011)) monograph for Fulvestrant.

[3] = Dissolution / reconstitution time at 50 mg/mL in castor oil, ethanol and benzyl alcohol solvent (benzyl benzoate-free); type: physicochemical; settings: solvent of castor oil and benzyl benzoate-free alcohol mixtures
Method: The lyophilizate should be reconstituted within a reasonable period, typically of less than 2 minutes (5); if reconstitution time is excessive, that is, more than 3 minutes, the user may get impatient or frustrated (6). […] This comparison was performed by dissolving fulvestrant at a concentration of 50 mg/mL, using a solvent comprising castor oil and benzyl benzoate-free alcohol mixtures.
A 50 mL Schott, type I, glass vial is placed on an Ohaus Adventurer balance. Then, 3.12 g Merck ethanol, 4.17 g Sigma-Aldrich benzyl alcohol and 12.70 g Sigma-Aldrich castor oil are added.
With the aid of a 1000 uL Eppendorf Research micropipette, 5 mL of the previously prepared solvent was added into an 11 mL Nuova Ompi type I of glass vial. The vial is capped with a solution S-additive plug from WestPharma and crimped with an aluminum seal.
The process for reconstituting a vial of lyophilizate of example 1 with the solvent of said example, using a Needle-less Transfer System Transfer Device 20/20 w/150 mic Filter Sterile from Westpharma, FIG. 9, is as follows:
10. The complete content of the syringe is discharged into the lyophilizate vial. […]
Using a Sper Scientific timer, it was determined that less than 90 seconds were required for reconstituting the lyophilizate. […]
It was determined that more than 60 minutes were required to completely dissolve Fulvestrant in the solvent using a Sper Scientific timer.

SMILES: C[C@]12CC[C@@H]3c4ccc(O)cc4C[C@@H](CCCCCCCCC[S+]([O-])CCCC(F)(F)C(F)(F)F)[C@H]3[C@@H]1CC[C@@H]2O (some centres unmarked) [Fulvestrant]
- solubility in castor oil with organic solvents (alcohol) and a non-aqueous ester-type solvent ([1]; carrier of US 6,774,122): at least 50 mg/mL
- solubility in ethanol ([1]; ethanol, ref (3) US 6,774,122): highly soluble
- fulvestrant solubility in propylene glycol ([1]; propylene glycol, according to ref (7) US 2009/0227549): 4000 µg/mL
- solubility in tert-butanol ([1]; tert-butanol, ref (7)): highly soluble
- solubility in water ([1]; water, ref (3)): practically insoluble
- titer of the solution [2]: 99.2%
- total impurities in the solution [2]: 0.1%
- dissolution time [3]: more than 60 minutes
